Laboratory results from ChEMBL document CHEMBL5661955, “ASAP - In vitro cytotoxicity” (2024).

Experiments:
[1] = Functional assay to measure dose dependent changes in cell viability from drug treatment in Vero E6 miRFP670 cells (cotreated with P-gp inhibitor, CP100356) that are infected with Dengue virus type 2 New Guinea C. […] Cytotoxicity is reported via via analysis of DAPI count using high-content imager. The assay has been performed by KU Leuven.; assay type: toxicity, cell-based, Vero C1008; settings: chlorocebus sabaeus, with CP100356 (P-gp inhibitor, concentration not stated); p-gp concentration 500 nM
[2] = Functional metabolic assay to measure dose dependent changes in cell viability from drug treatment in Vero E6/TMPRSS2 cells (cotreated with P-gp inhibitor, Elacridar). […] Cytotoxicity is reported via measuring absorbance and analysis of MTT/MTS assays in uninfected cells. The assay has been performed by Icahn School of Medicine at Mount Sinai.; assay type: toxicity, cell-based, VeroE6/TMPRSS2; settings: chlorocebus sabaeus, p-gp concentration 2 uM; for CC50: Vero E6/TMPRSS2 cells, with Elacridar (P-gp inhibitor, concentration not stated); for CC10: veroe6/tmprss2

SMILES	CC50 [1]	CC50 [2]	CC10 [2]
C[C@@]1(O)[C@H](O)[C@@H](CO)O[C@H]1n1ccc(N)nc1=O	> 200 µM		
CCCCCC(=O)N[C@H](C(=O)NCc1ccc(N)nc1)c1ccc(OCc2ccccc2)cc1	3.63 µM		
CN(C)C(=O)c1cc(CN)cc([C@@H]2C[C@H]2c2cc(Cl)cc(NC(=O)OCc3ccccc3)c2)c1	4.09 µM		
CC(=Cc1cc(Cl)cc(NC(=O)OCc2ccccc2)c1)c1cccc(CN)c1	0.906 µM		
C=CC[C@H](Nc1cc(Cl)cc(NC(=O)OCc2ccccc2)c1)c1cccc(CN)c1	3.34 µM		
NCc1cccc([C@@H]2C[C@H]2c2cc(Cl)cc(NC(=O)OCc3ccccc3)c2)c1		> 50 µM	> 50 µM
NCc1cccc(NC(=O)C[C@H](NC(=O)OCc2ccccc2)c2ccc(OCc3ccccc3)c(Br)c2)c1		38.4 µM	0.148 µM
NCc1ccc2c(c1)[C@H]1OCCC[C@H]1[C@H](c1cc(Cl)cc(NC(=O)OCc3ccccc3)c1)N2	5.8 µM		
O=C(Nc1cc(Cl)cc([C@H]2C[C@@H]2c2cccc(-c3nnn[nH]3)c2)c1)OCc1ccccc1	16.3 µM		
C[C@@H](N)c1cccc(NC(=O)[C@H]2[C@H]3CCCCC[C@H]3[C@H]2NC(=O)OCc2ccccc2)c1		> 50 µM	0.044 µM
CCOc1cccc(-c2ccc(S(=O)(=O)Nc3cc4c(cc3C(=O)O)CCC4)cc2)c1		> 50 µM	5.671 µM
O=C(Nc1cc(Cl)cc(C(=O)Nc2cccc([C@H]3CCNC3)c2)c1)OCc1ccccc1		20.1 µM	2.776 µM
O=C(O)Cn1ncc2cc(-c3cc(Cl)cc(NC(=O)OCc4ccccc4)c3)ccc21	> 50 µM		
CCOC(=O)Nc1cc(Cl)cc(C(=O)Nc2cccc(CN)c2)c1		> 50 µM	> 50 µM
NCc1cccc(CNC(=O)[C@@H](NC(=O)OCc2ccccc2)c2ccc(OCc3ccccc3)cc2)c1	1.9 µM		
NCc1ccc(F)c(NC(=O)c2cc(Cl)cc(NC(=O)OCc3ccccc3)c2)c1		> 50 µM	> 50 µM
O=C(Nc1cc(Cl)cc(CNc2cccc(-c3nn[nH]n3)c2)c1)OCc1ccccc1	> 50 µM		

SMILES	CC50 [1]	CC50 [2]	CC10 [2]
O=C(Nc1cc(Cl)cc([C@H](C#CCO)Nc2ccc(-c3nn[nH]n3)cc2)c1)OCc1ccccc1	> 50 µM		
CC(=Cc1cccc(CN)c1)c1cc(Cl)cc(NC(=O)OCc2ccccc2)c1	3.26 µM		
N[C@H]1CC[C@H](c2ccc(NC(=O)c3cc(Cl)cc(NC(=O)OCc4ccccc4)c3)cc2)C1	2.84 µM		
CNC(=O)[C@H](Nc1cccc(CN)c1)c1cc(Cl)cc(NC(=O)OCc2ccccc2)c1	23.7 µM		
CC(=O)Nc1cc(Cl)cc(C(=O)Nc2cccc(CN)c2)c1		> 50 µM	> 50 µM
Clc1cccc([C@H](C#Cc2ccccc2)Nc2cccc(-c3nn[nH]n3)c2)c1	6.84 µM		
NCc1cccc(NC(=O)[C@H]2[C@H]3CCCCC[C@H]3[C@H]2NC(=O)OCc2ccccc2)c1		10.3 µM	0.166 µM
NCc1cccc(NC(=O)[C@@H](NC(=O)OCc2ccccc2)c2ccc(Br)c(Cl)c2)c1		8.15 µM	0.556 µM
NCc1ccc([C@H]2C[C@@H]2c2cc(Cl)cc(NC(=O)OCc3ccccc3)c2)cc1	3.51 µM		
C=CC[C@H](Nc1cccc(-c2nn[nH]n2)c1)c1cc(Cl)cc(NC(=O)OCc2ccccc2)c1	6.9 µM		
O=C(Nc1cc(Cl)cc(C(=O)Nc2ccc3c(c2)CCNC3)c1)OCc1ccccc1	2.91 µM		
O=C(Nc1cc(Cl)cc(C(=O)Nc2ccc3c(c2)CNCCO3)c1)OCc1ccccc1		> 50 µM	< 0.023 µM
CNC(=O)c1cc(Cl)c(F)cc1NS(=O)(=O)c1ccc(Oc2ccccc2Cl)cc1	5.65 µM		
CNC(=O)[C@H](Nc1cc(Cl)cc(NC(=O)OCc2ccccc2)c1)c1cccc(CN)c1	24.2 µM		
CC[C@H](Cc1nnn[nH]1)c1ccc(NC(=O)c2cc(Cl)cc(C3CC3)c2)cc1		> 50 µM	> 50 µM
N#C[C@H](Nc1cc(Cl)cc(NC(=O)OCc2ccccc2)c1)c1ccc(-c2nn[nH]n2)cc1	13 µM		
O=C(Nc1cc(Cl)cc(C(=O)Nc2ccc([C@@H]3C[C@H]3C(=O)O)cc2)c1)OCc1ccccc1	21.1 µM		
